# Read-outs that look alike come from different tables or passages of the source.
# Target: T1, SIRT1 (Homo sapiens, UniProt Q96EB6)
# T1 sequence (Q96EB6 1-747): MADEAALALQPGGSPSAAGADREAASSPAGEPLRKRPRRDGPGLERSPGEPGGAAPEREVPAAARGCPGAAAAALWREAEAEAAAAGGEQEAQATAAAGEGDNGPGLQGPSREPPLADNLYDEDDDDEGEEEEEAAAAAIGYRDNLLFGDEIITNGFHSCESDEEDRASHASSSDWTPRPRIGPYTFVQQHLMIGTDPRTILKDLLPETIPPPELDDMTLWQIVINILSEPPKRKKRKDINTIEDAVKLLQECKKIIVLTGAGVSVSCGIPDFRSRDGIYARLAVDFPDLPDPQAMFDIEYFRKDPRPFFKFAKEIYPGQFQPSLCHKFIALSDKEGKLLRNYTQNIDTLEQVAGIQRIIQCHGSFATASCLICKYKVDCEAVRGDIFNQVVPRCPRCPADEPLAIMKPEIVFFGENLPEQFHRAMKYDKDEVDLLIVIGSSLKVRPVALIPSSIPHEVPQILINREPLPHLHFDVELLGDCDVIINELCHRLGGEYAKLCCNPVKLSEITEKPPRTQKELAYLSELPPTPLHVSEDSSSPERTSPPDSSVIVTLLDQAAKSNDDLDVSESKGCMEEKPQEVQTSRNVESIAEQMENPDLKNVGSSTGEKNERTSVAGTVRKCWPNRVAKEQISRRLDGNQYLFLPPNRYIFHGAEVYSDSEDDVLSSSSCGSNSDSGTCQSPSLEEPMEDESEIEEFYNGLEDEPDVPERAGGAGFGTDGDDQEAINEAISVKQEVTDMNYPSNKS
# Assay: Mass spectrometry based SIRT1 deacetylase activation assay (acetylated p53-derived peptide substrate)
# Type: biochemical
# [1] = 0.5 μM peptide substrate, 120 μM βNAD+, 10 nM SIRT1, 25 minutes at 25° C.
# [2] = 0.5 μM peptide substrate, 120 μM βNAD+, 10 nM SIRT1, 25 min at 25° C.
# [3] = 0.5 μM peptide substrate, 120 μM βNAD+, 10 nM SIRT1, 25 min at 25° C., read-out: EC1.5
EC1.5 [1],Fold Act. (percent maximum fold activation) [1],EC1.5,Fold Act. (percent maximum fold activation),Compound,further results
A (EC1.5<1.0 uM),A (Fold activation >200%),–,–,O=C(Nc1nccs1)c1cccc2[nH]c(-c3cc(N4CC[C@H](F)C4)ccc3C(F)(F)F)nc12 [Compound 665],–
–,–,B (EC1.5 1-25 uM),A (Fold activation >200%),Cc1ncsc1-c1nc2c(C(=O)Nc3nccs3)cccc2[nH]1 [Compound 293],–
A (EC1.5<1.0 uM),A (Fold activation >200%),–,–,O=C(Nc1cccc(CN2CCOCC2)n1)c1cccc2[nH]c(-c3ccc(F)cc3C(F)F)nc12 [Compound 818],–
–,–,A (EC1.5<1.0 uM),A (Fold activation >200%),O=C(Nc1cccnc1)c1cccc2[nH]c(-c3cc(F)ccc3C(F)(F)F)nc12 [Compound 317],–
–,–,A (EC1.5<1.0 uM),A (Fold activation >200%),Cc1nc(NC(=O)c2cccc3[nH]c(-c4ccc(Cl)cc4C(F)(F)F)nc23)sc1C [Compound 393],–
A (EC1.5<1.0 uM),A (Fold activation >200%),–,–,O=C(Nc1ccc(CN2CCNCC2)nc1)c1cccc2[nH]c(-c3ccccc3C(F)(F)F)nc12 [Compound 728],–
–,–,–,–,"O=C(Nc1nccs1)c1cccc2[nH]c(-c3ccccc3OC3CCNCC3)nc12 [Compound 428, 2-(2-(piperidin-4-yloxy)phenyl)-N-(thiazol-2-yl)-1H-benzo[d]imidazole-4-carboxamide]",Fold Act. (percent maximum fold activation) [2]: A (Fold activation >200%); EC1.5 [3]: < 1000 nM
A (EC1.5<1.0 uM),A (Fold activation >200%),–,–,Cc1cnc(NC(=O)c2cccc3[nH]c(-c4ccc(OC[C@@H](O)CO)cc4C(F)(F)F)nc23)s1 [Compound 746],–
–,–,–,–,O=C(Nc1ccccn1)c1cccc2[nH]c(-c3ccccc3OC3CCNC3)nc12 (stereo not drawn) [Compound 460],Fold Act. (percent maximum fold activation) [2]: A (Fold activation >200%); EC1.5 [3]: 1000 to 25000 nM
–,–,A (EC1.5<1.0 uM),A (Fold activation >200%),O=C(Nc1ccncc1)c1cccc2[nH]c(-c3cccc(N4CCOCC4)c3)nc12 [Compound 287],–
A (EC1.5<1.0 uM),A (Fold activation >200%),–,–,O=C(Nc1cccc(OC[C@@H](O)CO)c1)c1cccc2[nH]c(-c3ccccc3C(F)F)nc12 [Compound 700],–
–,–,A (EC1.5<1.0 uM),A (Fold activation >200%),O=C(Nc1ccc[n+]([O-])c1)c1cccc2[nH]c(-c3ccccc3C(F)(F)F)nc12 [Compound 336],–
–,–,A (EC1.5<1.0 uM),A (Fold activation >200%),Cc1cc(C)nc(NC(=O)c2cccc3[nH]c(-c4ccc(F)cc4C(F)(F)F)nc23)c1 [Compound 359],–
–,–,A (EC1.5<1.0 uM),A (Fold activation >200%),Cn1nc(C(F)(F)F)c(-c2nc3c(C(=O)Nc4nccs4)cccc3[nH]2)c1Cl [Compound 295],–
A (EC1.5<1.0 uM),A (Fold activation >200%),–,–,O=C(Nc1cccc(CN2CCCC2)n1)c1cccc2[nH]c(-c3cc(F)ccc3C(F)(F)F)nc12 [Compound 623],–
B (EC1.5 1-25 uM),A (Fold activation >200%),–,–,Cc1cccc(-c2nc3c(C(=O)Nc4ccccn4)cccc3[nH]2)c1OCCN1CCOCC1 [Compound 627],–
A (EC1.5<1.0 uM),A (Fold activation >200%),–,–,COc1cc(C(=O)Nc2nccs2)c2nc(-c3ccccc3C(F)(F)F)[nH]c2c1 [Compound 634],–
–,–,A (EC1.5<1.0 uM),A (Fold activation >200%),O=C(Nc1nccs1)c1cccc2[nH]c(-c3cc(F)ccc3C(F)(F)F)nc12 [Compound 302],–
–,–,B (EC1.5 1-25 uM),A (Fold activation >200%),Cn1ccc(-c2nc3c(C(=O)Nc4nccs4)cccc3[nH]2)n1 [Compound 303],–
A (EC1.5<1.0 uM),A (Fold activation >200%),–,–,O=C(Nc1ccc(OC[C@@H](O)CO)cc1)c1cccc2[nH]c(-c3cccc(N4CCOCC4)c3)nc12 [Compound 787],–
–,–,–,–,Cc1cnc(NC(=O)c2cccc3[nH]c(-c4ccc(OCC(O)CO)cc4C(F)F)nc23)s1 (stereo not drawn) [Compound 557],Fold Act. (percent maximum fold activation) [2]: A (Fold activation >200%); EC1.5 [3]: < 1000 nM

EC1.5 [1],Fold Act. (percent maximum fold activation) [1],EC1.5,Fold Act. (percent maximum fold activation),Compound,further results
–,–,B (EC1.5 1-25 uM),A (Fold activation >200%),O=C(Nc1cccc2[nH]c(-c3ccccc3C(F)(F)F)nc12)c1ccccn1 [Compound 364],–
–,–,–,–,O=C(NCc1ccccn1)c1cccc2[nH]c(-c3cccc(N4CCOCC4)c3)nc12 [Compound 471],Fold Act. (percent maximum fold activation) [2]: A (Fold activation >200%); EC1.5 [3]: 1000 to 25000 nM
–,–,–,–,O=C(Nc1ccncn1)c1cccc2[nH]c(-c3ccc(N4CCOCC4)cc3C(F)F)nc12 [Compound 593],Fold Act. (percent maximum fold activation) [2]: A (Fold activation >200%); EC1.5 [3]: < 1000 nM
C (EC1.5 >25 uM),B (Fold Activation <200%),–,–,FC(F)(F)c1ccccc1-c1nc2c(NCc3cccnc3)cccc2[nH]1 [Compound 618],–
A (EC1.5<1.0 uM),A (Fold activation >200%),–,–,O=C(Nc1nccs1)c1cccc2[nH]c(-c3ccc(OC[C@H](O)CO)cc3C(F)(F)F)nc12 [Compound 742],–
–,–,A (EC1.5<1.0 uM),A (Fold activation >200%),O=C(Nc1ccc[n+]([O-])c1)c1cccc2[nH]c(-c3ccc(Cl)cc3C(F)(F)F)nc12 [Compound 331],–
–,–,–,–,O=C(Nc1nccs1)c1cccc2[nH]c(-c3ccc(OC4CCNCC4)cc3)nc12 [Compound 447],Fold Act. (percent maximum fold activation) [2]: A (Fold activation >200%); EC1.5 [3]: < 1000 nM
A (EC1.5<1.0 uM),A (Fold activation >200%),–,–,"O=C(Nc1ccc(CN2CCCC2)cc1)c1cccc2[nH]c(-c3ccc(CN4CCCC4)cc3C(F)(F)F)nc12 [Compound 869, 2-(4-(pyrrolidin-1-ylmethyl)-2-(trifluoromethyl)phenyl)-N-(4-(pyrrolidin-1-ylmethyl)phenyl)-1H-benzo[d]imidazole-4-carboxamide]",–
–,–,A (EC1.5<1.0 uM),A (Fold activation >200%),O=C(Nc1nccs1)c1cccc2[nH]c(-c3ccc(Cl)cc3C(F)(F)F)nc12 [Compound 290],–
–,–,–,–,CN1CCN(c2cccc(-c3nc4c(C(=O)Nc5ccccn5)cccc4[nH]3)c2)CC1 [Compound 528],Fold Act. (percent maximum fold activation) [2]: A (Fold activation >200%); EC1.5 [3]: < 1000 nM
–,–,–,–,Cn1cc(-c2nc3c(C(=O)Nc4nccs4)cccc3[nH]2)c(C(F)(F)F)n1 [Compound 477],Fold Act. (percent maximum fold activation) [2]: A (Fold activation >200%); EC1.5 [3]: < 1000 nM
–,–,B (EC1.5 1-25 uM),A (Fold activation >200%),O=C(Nc1ccccn1)c1cccc2[nH]c(-c3cccc(C(F)(F)F)c3)nc12 [Compound 233],–
–,–,B (EC1.5 1-25 uM),A (Fold activation >200%),O=C(Nc1cccc2[nH]c(-c3cc(F)ccc3C(F)(F)F)nc12)c1ccccn1 [Compound 385],–
A (EC1.5<1.0 uM),A (Fold activation >200%),–,–,O=C(Nc1cccnn1)c1cccc2[nH]c(-c3ccc(N4CCCC4)cc3C(F)F)nc12 [Compound 775],–
–,–,–,–,CS(=O)(=O)c1ccc(-c2nc3c(C(=O)Nc4nccs4)cccc3[nH]2)cc1 [Compound 405],Fold Act. (percent maximum fold activation) [2]: B (Fold Activation <200%); EC1.5 [3]: 1000 to 25000 nM
–,–,–,–,Cc1nc(N2CCOCC2)sc1-c1nc2c(C(=O)Nc3ccccn3)cccc2[nH]1 [Compound 412],Fold Act. (percent maximum fold activation) [2]: A (Fold activation >200%); EC1.5 [3]: < 1000 nM
–,–,A (EC1.5<1.0 uM),A (Fold activation >200%),Cc1nc(C)c(-c2nc3c(C(=O)Nc4nccs4)cccc3[nH]2)s1 [Compound 304],–
A (EC1.5<1.0 uM),A (Fold activation >200%),–,–,O=C(Nc1ccc(CN2CCCC2)cn1)c1cccc2[nH]c(-c3cc(F)ccc3C(F)(F)F)nc12 [Compound 625],–
–,–,–,–,Cc1cnc(NC(=O)c2cccc3[nH]c(-c4ccccc4OCCN4CCOCC4)nc23)s1 [Compound 475],Fold Act. (percent maximum fold activation) [2]: A (Fold activation >200%); EC1.5 [3]: 1000 to 25000 nM
–,–,C (EC1.5 >25 uM),B (Fold Activation <200%),O=C(N[C@H]1CCNC1)c1cccc2[nH]c(-c3cccc(C(F)(F)F)c3)nc12 [Compound 301],–
–,–,A (EC1.5<1.0 uM),A (Fold activation >200%),Cc1nc(NC(=O)c2cccc3[nH]c(-c4cc(F)ccc4C(F)(F)F)nc23)sc1C [Compound 377],–
